Results on 4 molecules are retold here after ChEMBL document CHEMBL1201862, “PubChem BioAssay data set” (2004).

Active and inactive are the calls of the source.

What all share (assay type): functional
In assay [1] the target is Mitogen-activated protein kinase kinase kinase kinase 4 (Homo sapiens, UniProt O95819).
In assay [2] the target is Serine/threonine-protein kinase PAK 4 (Homo sapiens, UniProt O96013).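 Also: value obtained within a kinome profiling panel in which PAK4 was one of the panel members.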
In assay [3] the target is Dual specificity protein kinase CLK4 (Homo sapiens, UniProt Q9HAZ1).
The target of the next assay is T1, Activin receptor type-1 (Homo sapiens, UniProt Q04771).
T1 sequence (Q04771 whole entry): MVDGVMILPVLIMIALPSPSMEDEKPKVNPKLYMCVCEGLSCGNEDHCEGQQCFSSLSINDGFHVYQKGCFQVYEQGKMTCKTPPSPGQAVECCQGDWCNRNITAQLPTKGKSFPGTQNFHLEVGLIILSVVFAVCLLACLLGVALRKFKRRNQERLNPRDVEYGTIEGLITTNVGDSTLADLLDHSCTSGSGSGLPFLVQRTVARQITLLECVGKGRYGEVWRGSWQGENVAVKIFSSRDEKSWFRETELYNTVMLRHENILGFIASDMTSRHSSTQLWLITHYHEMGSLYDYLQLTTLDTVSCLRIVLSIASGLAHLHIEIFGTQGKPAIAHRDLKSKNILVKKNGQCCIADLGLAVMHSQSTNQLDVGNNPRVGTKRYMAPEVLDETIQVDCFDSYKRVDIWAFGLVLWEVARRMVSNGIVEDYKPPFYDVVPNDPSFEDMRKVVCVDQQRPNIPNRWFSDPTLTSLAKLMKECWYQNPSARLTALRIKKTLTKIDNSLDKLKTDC
Description: Navigating the Kinome. Panel member name: ACVR1.

Assay [4] deals with Leukocyte tyrosine kinase receptor (Homo sapiens, UniProt P29376). The assay can be described thus: Navigating the Kinome. Panel member name: LTK.
For assay [5], the target named is High affinity nerve growth factor receptor (Homo sapiens, UniProt P04629).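 Also: NTRK1 tested as one member of a kinome-wide profiling panel.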
In assay [6] the target is Calcium/calmodulin-dependent protein kinase type II subunit alpha (Homo sapiens, UniProt Q9UQM7). The assay can be described thus: Navigating the Kinome. Panel member name: CAMK2A.
Assay [7] addresses T2, Receptor-type tyrosine-protein kinase FLT3 (Homo sapiens, UniProt P36888).
T2 sequence (P36888 whole entry): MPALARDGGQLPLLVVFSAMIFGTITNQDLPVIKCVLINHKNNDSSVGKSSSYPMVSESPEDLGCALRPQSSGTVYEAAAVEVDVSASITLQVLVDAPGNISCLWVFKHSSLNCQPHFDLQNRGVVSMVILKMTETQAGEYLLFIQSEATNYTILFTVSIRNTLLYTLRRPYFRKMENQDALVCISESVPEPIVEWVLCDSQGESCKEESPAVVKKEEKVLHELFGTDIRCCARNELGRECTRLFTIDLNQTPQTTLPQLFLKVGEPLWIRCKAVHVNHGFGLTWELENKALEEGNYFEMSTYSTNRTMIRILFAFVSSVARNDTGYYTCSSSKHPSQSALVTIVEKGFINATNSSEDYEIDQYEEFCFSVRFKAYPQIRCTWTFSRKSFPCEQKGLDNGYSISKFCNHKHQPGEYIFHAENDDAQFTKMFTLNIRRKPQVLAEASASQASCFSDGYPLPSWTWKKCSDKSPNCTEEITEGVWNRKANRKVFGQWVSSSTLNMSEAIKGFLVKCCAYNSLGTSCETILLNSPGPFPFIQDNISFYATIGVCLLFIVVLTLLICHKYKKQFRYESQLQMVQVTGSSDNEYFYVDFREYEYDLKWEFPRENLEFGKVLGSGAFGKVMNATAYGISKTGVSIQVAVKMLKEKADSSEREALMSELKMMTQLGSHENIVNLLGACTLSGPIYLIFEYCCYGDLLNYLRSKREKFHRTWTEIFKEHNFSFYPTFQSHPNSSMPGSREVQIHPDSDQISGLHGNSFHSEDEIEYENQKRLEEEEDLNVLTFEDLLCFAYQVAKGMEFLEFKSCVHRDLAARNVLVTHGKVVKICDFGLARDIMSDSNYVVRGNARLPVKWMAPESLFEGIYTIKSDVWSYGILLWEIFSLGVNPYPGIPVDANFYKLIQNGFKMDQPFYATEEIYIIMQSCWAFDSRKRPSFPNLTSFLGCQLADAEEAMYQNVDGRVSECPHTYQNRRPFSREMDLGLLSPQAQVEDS

Assay [8] addresses Mitogen-activated protein kinase 8 (Homo sapiens, UniProt P45983).
The target of assay [9] is T3, Tyrosine-protein kinase JAK3 (Homo sapiens, UniProt P52333).
T3 sequence (P52333 whole entry): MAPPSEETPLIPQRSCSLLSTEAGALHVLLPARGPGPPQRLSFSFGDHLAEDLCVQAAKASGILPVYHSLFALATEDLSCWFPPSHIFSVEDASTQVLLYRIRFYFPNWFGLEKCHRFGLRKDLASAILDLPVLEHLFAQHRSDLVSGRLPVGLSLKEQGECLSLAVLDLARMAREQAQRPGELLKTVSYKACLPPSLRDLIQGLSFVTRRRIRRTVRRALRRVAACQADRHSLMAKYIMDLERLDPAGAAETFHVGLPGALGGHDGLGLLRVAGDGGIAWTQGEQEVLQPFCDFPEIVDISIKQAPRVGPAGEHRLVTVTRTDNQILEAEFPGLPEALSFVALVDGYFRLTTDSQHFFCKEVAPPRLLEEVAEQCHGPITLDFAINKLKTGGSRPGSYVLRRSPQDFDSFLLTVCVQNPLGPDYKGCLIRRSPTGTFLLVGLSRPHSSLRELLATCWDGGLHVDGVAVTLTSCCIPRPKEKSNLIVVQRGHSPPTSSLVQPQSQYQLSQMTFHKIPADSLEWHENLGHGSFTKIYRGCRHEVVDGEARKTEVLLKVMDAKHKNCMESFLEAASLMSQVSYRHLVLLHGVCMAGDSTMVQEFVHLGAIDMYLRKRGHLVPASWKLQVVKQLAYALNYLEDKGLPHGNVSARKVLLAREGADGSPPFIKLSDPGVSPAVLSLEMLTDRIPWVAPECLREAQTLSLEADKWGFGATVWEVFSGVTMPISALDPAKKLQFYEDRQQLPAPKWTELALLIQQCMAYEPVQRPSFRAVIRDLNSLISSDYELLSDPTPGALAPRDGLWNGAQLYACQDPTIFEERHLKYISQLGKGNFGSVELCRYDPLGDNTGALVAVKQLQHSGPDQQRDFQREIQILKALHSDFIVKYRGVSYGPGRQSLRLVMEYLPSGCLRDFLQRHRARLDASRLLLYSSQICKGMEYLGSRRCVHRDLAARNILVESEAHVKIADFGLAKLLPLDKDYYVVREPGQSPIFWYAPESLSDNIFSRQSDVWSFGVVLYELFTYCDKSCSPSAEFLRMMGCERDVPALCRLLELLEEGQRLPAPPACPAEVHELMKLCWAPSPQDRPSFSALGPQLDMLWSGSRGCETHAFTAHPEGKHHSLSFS

Usually Ki stands for a dissociation constant, usually derived from enzyme kinetics or from competition with a known ligand.

Sequence of Serine/threonine-protein kinase PAK 4 (O96013 whole entry): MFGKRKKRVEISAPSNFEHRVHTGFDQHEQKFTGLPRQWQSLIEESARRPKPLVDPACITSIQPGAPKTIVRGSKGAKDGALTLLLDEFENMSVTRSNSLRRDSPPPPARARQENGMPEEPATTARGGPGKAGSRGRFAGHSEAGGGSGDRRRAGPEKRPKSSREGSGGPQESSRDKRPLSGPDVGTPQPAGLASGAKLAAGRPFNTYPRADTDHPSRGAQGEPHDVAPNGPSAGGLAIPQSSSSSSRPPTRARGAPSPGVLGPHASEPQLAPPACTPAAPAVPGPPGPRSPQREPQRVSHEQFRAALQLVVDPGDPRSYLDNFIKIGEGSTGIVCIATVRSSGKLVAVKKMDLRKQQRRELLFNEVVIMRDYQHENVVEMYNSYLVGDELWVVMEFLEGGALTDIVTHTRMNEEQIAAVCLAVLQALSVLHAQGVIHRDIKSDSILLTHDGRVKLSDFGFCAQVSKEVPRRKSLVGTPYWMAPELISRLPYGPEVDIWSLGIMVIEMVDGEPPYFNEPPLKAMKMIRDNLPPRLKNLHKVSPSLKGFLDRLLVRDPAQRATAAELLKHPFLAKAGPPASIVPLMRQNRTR
Sequence of Calcium/calmodulin-dependent protein kinase type II subunit alpha (Q9UQM7 whole entry): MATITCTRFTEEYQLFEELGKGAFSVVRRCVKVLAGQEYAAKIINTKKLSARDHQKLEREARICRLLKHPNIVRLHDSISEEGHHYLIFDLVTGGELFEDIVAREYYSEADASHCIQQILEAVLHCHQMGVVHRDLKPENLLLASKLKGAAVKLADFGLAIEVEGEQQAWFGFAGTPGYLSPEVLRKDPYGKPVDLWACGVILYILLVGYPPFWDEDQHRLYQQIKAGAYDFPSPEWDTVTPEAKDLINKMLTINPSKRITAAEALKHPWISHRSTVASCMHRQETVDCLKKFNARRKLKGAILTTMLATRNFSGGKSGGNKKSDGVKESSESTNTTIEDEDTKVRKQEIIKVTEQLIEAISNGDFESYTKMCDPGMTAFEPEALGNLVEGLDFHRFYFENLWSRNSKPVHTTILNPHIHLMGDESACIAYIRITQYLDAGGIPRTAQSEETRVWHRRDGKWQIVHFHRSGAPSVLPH
Sequence of Mitogen-activated protein kinase 8 (P45983 whole entry): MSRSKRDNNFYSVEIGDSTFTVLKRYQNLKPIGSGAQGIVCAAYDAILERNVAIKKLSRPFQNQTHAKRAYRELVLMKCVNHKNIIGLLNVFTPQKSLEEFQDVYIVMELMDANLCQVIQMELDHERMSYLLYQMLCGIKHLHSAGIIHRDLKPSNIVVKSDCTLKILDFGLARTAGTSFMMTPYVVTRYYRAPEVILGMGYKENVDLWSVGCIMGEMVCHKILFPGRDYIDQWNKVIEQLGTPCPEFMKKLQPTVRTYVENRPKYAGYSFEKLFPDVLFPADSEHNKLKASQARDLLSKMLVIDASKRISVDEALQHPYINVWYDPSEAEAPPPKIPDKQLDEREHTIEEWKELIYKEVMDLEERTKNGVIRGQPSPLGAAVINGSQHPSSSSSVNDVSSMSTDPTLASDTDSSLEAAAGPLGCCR
Sequence of Dual specificity protein kinase CLK4 (Q9HAZ1 whole entry): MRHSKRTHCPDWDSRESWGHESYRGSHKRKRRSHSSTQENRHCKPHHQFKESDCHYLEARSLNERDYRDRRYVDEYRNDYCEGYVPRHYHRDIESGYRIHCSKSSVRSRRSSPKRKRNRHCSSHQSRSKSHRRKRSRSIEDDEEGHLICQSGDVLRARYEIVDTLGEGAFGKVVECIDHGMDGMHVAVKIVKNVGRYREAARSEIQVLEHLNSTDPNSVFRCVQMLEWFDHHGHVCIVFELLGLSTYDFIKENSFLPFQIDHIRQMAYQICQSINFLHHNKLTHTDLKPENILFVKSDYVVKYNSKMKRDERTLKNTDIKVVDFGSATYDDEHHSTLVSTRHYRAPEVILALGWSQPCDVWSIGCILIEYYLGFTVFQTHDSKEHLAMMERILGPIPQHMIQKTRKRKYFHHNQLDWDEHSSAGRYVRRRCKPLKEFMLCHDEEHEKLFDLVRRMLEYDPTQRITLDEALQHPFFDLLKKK
Sequence of High affinity nerve growth factor receptor (P04629 whole entry): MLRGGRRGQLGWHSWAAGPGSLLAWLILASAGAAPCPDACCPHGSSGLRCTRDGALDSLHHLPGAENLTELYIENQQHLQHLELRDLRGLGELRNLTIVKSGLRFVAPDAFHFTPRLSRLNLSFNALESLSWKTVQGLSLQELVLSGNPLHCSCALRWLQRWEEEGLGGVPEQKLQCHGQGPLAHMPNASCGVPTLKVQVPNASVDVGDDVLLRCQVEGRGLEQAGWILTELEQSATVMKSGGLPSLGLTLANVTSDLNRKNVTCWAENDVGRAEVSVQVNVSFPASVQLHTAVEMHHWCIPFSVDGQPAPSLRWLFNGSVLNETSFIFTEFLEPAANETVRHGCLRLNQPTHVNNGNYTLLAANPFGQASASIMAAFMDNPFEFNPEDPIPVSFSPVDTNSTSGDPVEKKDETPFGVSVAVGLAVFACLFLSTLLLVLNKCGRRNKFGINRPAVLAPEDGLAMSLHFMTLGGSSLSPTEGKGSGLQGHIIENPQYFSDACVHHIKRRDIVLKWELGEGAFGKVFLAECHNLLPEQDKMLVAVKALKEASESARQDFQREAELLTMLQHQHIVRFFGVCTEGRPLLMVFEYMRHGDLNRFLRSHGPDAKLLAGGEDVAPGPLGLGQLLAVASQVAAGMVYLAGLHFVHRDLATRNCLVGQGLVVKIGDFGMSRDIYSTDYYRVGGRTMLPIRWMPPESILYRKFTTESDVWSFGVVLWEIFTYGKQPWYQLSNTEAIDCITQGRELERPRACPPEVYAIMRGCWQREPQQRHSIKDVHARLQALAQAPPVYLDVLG
Sequence of Mitogen-activated protein kinase kinase kinase kinase 4 (O95819 whole entry): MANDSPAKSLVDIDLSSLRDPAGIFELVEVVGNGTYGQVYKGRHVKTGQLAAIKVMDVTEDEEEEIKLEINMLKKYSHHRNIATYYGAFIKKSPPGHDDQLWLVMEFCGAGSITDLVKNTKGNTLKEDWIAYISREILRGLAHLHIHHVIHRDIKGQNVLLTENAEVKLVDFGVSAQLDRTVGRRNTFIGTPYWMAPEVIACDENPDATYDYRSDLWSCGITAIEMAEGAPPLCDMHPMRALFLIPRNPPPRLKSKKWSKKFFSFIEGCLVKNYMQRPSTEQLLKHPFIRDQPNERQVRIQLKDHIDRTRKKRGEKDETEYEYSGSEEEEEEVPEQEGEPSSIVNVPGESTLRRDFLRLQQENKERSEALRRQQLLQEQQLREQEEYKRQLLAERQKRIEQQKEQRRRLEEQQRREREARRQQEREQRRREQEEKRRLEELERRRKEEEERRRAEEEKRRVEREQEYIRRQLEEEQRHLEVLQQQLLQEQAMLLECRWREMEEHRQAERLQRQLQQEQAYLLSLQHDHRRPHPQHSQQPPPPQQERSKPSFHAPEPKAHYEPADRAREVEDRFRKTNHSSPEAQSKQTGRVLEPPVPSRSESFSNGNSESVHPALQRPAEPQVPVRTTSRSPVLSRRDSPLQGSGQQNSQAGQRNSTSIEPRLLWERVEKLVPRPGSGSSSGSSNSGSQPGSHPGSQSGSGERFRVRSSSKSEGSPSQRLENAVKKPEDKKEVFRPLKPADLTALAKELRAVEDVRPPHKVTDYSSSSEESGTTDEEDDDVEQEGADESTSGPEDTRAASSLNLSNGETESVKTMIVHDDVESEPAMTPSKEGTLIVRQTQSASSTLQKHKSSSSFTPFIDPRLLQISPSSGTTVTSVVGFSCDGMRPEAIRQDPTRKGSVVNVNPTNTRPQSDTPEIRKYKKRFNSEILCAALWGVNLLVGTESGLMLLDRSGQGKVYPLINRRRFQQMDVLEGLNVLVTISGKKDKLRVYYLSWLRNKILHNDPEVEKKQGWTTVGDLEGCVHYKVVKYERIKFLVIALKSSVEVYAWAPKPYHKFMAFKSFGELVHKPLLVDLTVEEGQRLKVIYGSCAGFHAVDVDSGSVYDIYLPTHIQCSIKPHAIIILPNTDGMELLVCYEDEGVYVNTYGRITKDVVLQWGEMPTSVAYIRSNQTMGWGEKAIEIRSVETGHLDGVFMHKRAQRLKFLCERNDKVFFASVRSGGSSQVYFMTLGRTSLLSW
Sequence of Leukocyte tyrosine kinase receptor (P29376 whole entry): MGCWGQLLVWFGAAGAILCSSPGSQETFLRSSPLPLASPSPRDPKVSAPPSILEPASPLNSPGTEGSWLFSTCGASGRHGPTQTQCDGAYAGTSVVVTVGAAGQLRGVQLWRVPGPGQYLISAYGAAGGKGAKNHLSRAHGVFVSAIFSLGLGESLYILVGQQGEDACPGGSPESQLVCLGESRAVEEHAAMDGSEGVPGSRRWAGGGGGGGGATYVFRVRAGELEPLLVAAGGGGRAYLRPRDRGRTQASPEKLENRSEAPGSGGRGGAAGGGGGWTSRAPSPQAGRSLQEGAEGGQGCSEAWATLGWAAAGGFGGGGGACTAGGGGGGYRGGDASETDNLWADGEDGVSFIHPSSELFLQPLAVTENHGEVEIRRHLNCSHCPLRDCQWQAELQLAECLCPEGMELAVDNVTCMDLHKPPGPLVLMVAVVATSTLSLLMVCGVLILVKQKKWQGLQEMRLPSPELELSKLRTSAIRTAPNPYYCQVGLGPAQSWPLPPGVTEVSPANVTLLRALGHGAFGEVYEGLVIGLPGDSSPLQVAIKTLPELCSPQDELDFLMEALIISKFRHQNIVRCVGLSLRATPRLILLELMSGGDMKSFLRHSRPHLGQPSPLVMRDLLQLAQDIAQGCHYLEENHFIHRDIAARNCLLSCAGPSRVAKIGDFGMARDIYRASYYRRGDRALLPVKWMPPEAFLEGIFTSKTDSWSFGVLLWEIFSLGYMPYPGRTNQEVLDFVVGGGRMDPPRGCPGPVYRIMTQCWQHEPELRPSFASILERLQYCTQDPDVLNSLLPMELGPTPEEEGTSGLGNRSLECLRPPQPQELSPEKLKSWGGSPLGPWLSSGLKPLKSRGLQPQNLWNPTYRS

With `O=c1[nH]c2cc(Br)cnc2[nH]1`, the Ki in assay [1] was 50.1 µM (active); in assay [2], 39.8 µM (active); in assay [3], 1.26 µM (active); on Activin receptor type-1, 25.1 µM (active); in assay [4] it was 7.94 µM (active).

Turning to `O=C(Nc1cccc(C(F)(F)F)n1)Nc1ccnc2cc(OC(F)F)ccc12`, the Ki was > 5.01 µM (inactive) in assay [1]; > 5.01 µM (inactive) in assay [2]; > 3.16 µM (inactive) in [5]; > 6.31 µM (inactive) in assay [6]; > 3.16 µM (inactive) in [7]; > 5.01 µM (inactive) in assay [8]. Further, the values for the Ki in assay [9] and in assay [4] were > 5.01 µM (inactive) and > 2.51 µM (inactive), respectively.

For `O=C(Nc1cccc(C(F)(F)F)n1)Nc1ccnc2cc(Cl)ccc12`, the Ki in assay [2] was > 5.01 µM (inactive); in assay [5], 2.51 µM (active); in assay [6] it was > 7.94 µM (inactive); in assay [3], 1.26 µM (active); on Activin receptor type-1 it was 1 µM (active); in assay [7] it was > 3.16 µM (inactive). Moreover, the Ki was > 5.01 µM (inactive) in assay [8], 3.98 µM (active) in assay [9] and > 2.51 µM (inactive) in [4].

`CCC1CC(NS(=O)(=O)C2CC2)CC1c1ncc2cnc3[nH]ccc3n12` (configuration not stated): the Ki in assay [1] is > 5.01 µM (inactive); in assay [2], 2.51 µM (active); in [5] it was > 3.16 µM (inactive); in assay [6], 2.51 µM (active); in assay [3], > 1.58 µM (inactive); on Activin receptor type-1, > 3.98 µM (inactive). Moreover, the Ki in assay [7] was > 3.16 µM (inactive); in assay [8], > 5.01 µM (inactive); in assay [9], 0.00398 µM (active); in assay [4] it was 0.2 µM (active).
